Reference: US10538555B2, “Macrocyclic inhibitors of the PD-1/PD-L1 and CD80(B7-1)/PD-L1 protein/protein interactions” (BRISTOL-MYERS SQUIBB COMPANY, priority 2014, dated 2020)
*1 amine or outer side, *2 acyl side, *3 side chain or, on linkers, in order; H or OH if unused. Where a SMILES comes first, the peptide text is derived from it. Bridges are numbered along the chain shown (N, C = ends). [ ]: non-standard residue; d: D form. ξ: configuration not given here. X5 = O=C(O)CC[C@H](N[*:1])C(=O)C1C[C@H](O)C[C@H]1C(=O)[*:2]; Phe(4-NO2) = N[C@@H](Cc1ccc([N+](=O)[O-])cc1)C(=O)O; Phe(3,4,5-F3) = N[C@@H](Cc1cc(F)c(F)c(F)c1)C(=O)O; Phe(2,4-Cl2) = N[C@@H](Cc1ccc(Cl)cc1Cl)C(=O)O; Trp(7-aza) = N[C@@H](Cc1c[nH]c2ncccc12)C(=O)O; Phe(3,4-F2) = N[C@@H](Cc1ccc(F)c(F)c1)C(=O)O; X8 = O=C([C@H](CC1CNc2ccccc21)N[*:1])[*:2]; Phe(4-F) = N[C@@H](Cc1ccc(F)cc1)C(=O)O; d(cisHyp) = O=C(O)[C@H]1C[C@@H](O)CN1; Phe(2-F) = N[C@@H](Cc1ccccc1F)C(=O)O; Hyp = O=C(O)[C@@H]1C[C@@H](O)CN1; NMeF = CN[C@@H](Cc1ccccc1)C(=O)O; X1 = O=C([C@H]1COCCN1[*:1])[*:2]; dPip(4-aza) = O=C(O)[C@H]1CNCCN1; NMeNle = CCCC[C@H](NC)C(=O)O; NMeV = CN[C@H](C(=O)O)C(C)C; hSer = N[C@@H](CCO)C(=O)O; NMeA = CN[C@@H](C)C(=O)O; Orn = NCCC[C@H](N)C(=O)O; dThz = O=C(O)[C@H]1CSCN1; Dab = NCC[C@H](N)C(=O)O; Dap = NC[C@H](N)C(=O)O; ξC = NC(CS)C(=O)O; Sar = CNCC(=O)O

Molecular target: T1, Human PD-L1/PD-1 (Homo sapiens, UniProt Q9NZQ7)
T1 construct: TVMV protease cleavage site (C); made in house; host or cells: HEK293T cells
T1 sequence (Q9NZQ7 with tags, fused parts or gaps): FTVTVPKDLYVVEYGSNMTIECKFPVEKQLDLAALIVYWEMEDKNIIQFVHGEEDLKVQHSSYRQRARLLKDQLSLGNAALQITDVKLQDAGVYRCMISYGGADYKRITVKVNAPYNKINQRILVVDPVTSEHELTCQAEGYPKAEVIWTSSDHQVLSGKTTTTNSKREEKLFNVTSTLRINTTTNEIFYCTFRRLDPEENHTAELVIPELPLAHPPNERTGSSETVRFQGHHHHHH
Assay: HTRF Human PD-L1/PD-1 binding assay (PD-1-Ig/PD-L1-His)
Settings: PD-L1-His 10 nM, PD-1-Ig 20 nM; class symbol; read-out: HTRF Human PD-L1/PD-1 Binding Assay IC50 Range
Method in brief: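 HTRF competition using HEK293T-expressed human PD-1(25-167)-Ig at 20 nM and PD-L1(18-239)-His at 10 nM, compound incubated first with PD-L1 for 15 min, then with PD-1 for 15 min. Signal read as 665/620 nm ratio 30 min after adding Eu anti-Ig and APC anti-His antibodies.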

Row | SMILES | IC50
1 | CCCC[C@H]1C(=O)N(C)CC(=O)N[C@@H](CC(N)=O)C(=O)N[C@@H](C(C)C)C(=O)N(C)[C@@H](Cc2ccccc2)C(=O)N[C@@H](Cc2ccc(O)cc2)C(=O)N(C)CC(=O)N[C@@H](Cc2c[nH]c3ncccc23)C(=O)N[C@@H](Cc2ccc(O)cc2)C(=O)N[C@@H](CC(C)C)C(=O)N[C@H](C(=O)NCC(N)=O)CSCC(=O)N[C@@H](Cc2ccccc2)C(=O)N(C)[C@@H](Cc2ccccc2)C(=O)N1C [Example 3241] ({CH2CO}-F[NMeF][NMeNle][Sar]NV[NMeF]Y[Sar][Trp(7-aza)]YLCG-NH2; thioether N-13) | 10 to 99.9 nM
2 | CCCC[C@H]1C(=O)N(C)[C@@H](CCCC)C(=O)N[C@@H](CCCNC(=N)N)C(=O)N[C@H](C(=O)NCC(N)=O)CSCC(=O)N[C@@H](Cc2ccc(F)cc2)C(=O)N(C)[C@@H](C)C(=O)N[C@@H](CC(N)=O)C(=O)N2CCC[C@H]2C(=O)N[C@@H](Cc2cnc[nH]2)C(=O)N[C@@H](CCC(=O)O)C(=O)N2C[C@H](O)C[C@H]2C(=O)N[C@@H](Cc2c[nH]c3ccccc23)C(=O)N[C@@H](CCN)C(=O)N[C@@H](Cc2c[nH]c3ccccc23)C(=O)N1C [Example 7081] ({CH2CO}-[Phe(4-F)][NMeA]NPHE[Hyp]W[Dab]W[NMeNle][NMeNle]RCG-NH2; thioether N-14) | 1 to 9.9 nM
3 | CCCC[C@H]1C(=O)N2C[C@H](O)C[C@@H]2C(=O)N[C@@H](CC(=O)O)C(=O)N[C@@H](C(C)C)C(=O)N(C)[C@@H](Cc2ccccc2)C(=O)N[C@@H](Cc2ccc(O)cc2)C(=O)N2CCOC[C@@H]2C(=O)N[C@@H](Cc2c[nH]c3ccccc23)C(=O)N[C@@H](Cc2ccccc2F)C(=O)N[C@@H](CC(C)C)C(=O)N[C@H](C(=O)NCC(N)=O)CSCC(=O)N[C@@H](Cc2cc(F)c(F)c(F)c2)C(=O)N(C)[C@@H](Cc2ccccc2)C(=O)N1C [Example 10195] ({CH2CO}-[Phe(3,4,5-F3)][NMeF][NMeNle][d(cisHyp)]DV[NMeF]Y[X1]W[Phe(2-F)]LCG-NH2; thioether N-13) | 1 to 9.9 nM
4 | CCCC[C@H]1C(=O)N2C[C@H](O)C[C@@H]2C(=O)N[C@@H](CC(=O)O)C(=O)N[C@@H](C(C)C)C(=O)N(C)[C@@H](Cc2ccccc2)C(=O)N[C@@H](Cc2ccc(O)cc2)C(=O)N2CCNC[C@@H]2C(=O)N[C@@H](Cc2c[nH]c3ccccc23)C(=O)N[C@@H](Cc2ccc(O)cc2)C(=O)N[C@@H](CC(C)C)C(=O)N[C@H](C(=O)NCC(N)=O)CSCC(=O)N[C@@H](Cc2cc(F)c(F)c(F)c2)C(=O)N(C)[C@@H](Cc2ccccc2)C(=O)N1C [Example 10168] ({CH2CO}-[Phe(3,4,5-F3)][NMeF][NMeNle][d(cisHyp)]DV[NMeF]Y[dPip(4-aza)]WYLCG-NH2; thioether N-13) | 1 to 9.9 nM
5 | CCCC[C@H]1C(=O)N(C)[C@@H](CCCC)C(=O)N[C@@H](CCCNC(=N)N)C(=O)NC(C(=O)NCC(N)=O)CSCC(=O)N[C@@H](Cc2ccc(O)cc2)C(=O)N(C)[C@@H](C)C(=O)N[C@@H](CC(N)=O)C(=O)N2CCC[C@H]2C(=O)N[C@@H](CCO)C(=O)N[C@@H](CCO)C(=O)N2CCC[C@H]2C(=O)N[C@@H](Cc2c[nH]c3ccccc23)C(=O)N[C@@H](CO)C(=O)N[C@@H](Cc2c[nH]c3ccccc23)C(=O)N1C (stereo partly drawn) [Example 10021] ({CH2CO}-Y[NMeA]NP[hSer][hSer]PWSW[NMeNle][NMeNle]R[ξC]G-NH2; thioether N-14) | 10 to 99.9 nM
6 | CCCC[C@H]1C(=O)N(C)[C@@H](CCCC)C(=O)N[C@@H](CCCNC(=N)N)C(=O)N[C@H](C(=O)NCC(N)=O)CSCC(=O)N[C@@H](Cc2ccc(Cl)cc2Cl)C(=O)N(C)[C@@H](C)C(=O)N[C@@H](CC(N)=O)C(=O)N2CCC[C@H]2C(=O)N[C@@H](CN)C(=O)N[C@@H](CC(C)C)C(=O)N2C[C@H](O)C[C@H]2C(=O)N[C@@H](Cc2c[nH]c3ccccc23)C(=O)N[C@@H](CO)C(=O)N[C@@H](CC2CNc3ccccc32)C(=O)N1C (stereo partly drawn) [Example 7069] ({CH2CO}-[Phe(2,4-Cl2)][NMeA]NP[Dap]L[Hyp]WS[X8][NMeNle][NMeNle]RCG-NH2; thioether N-14) | 1 to 9.9 nM
7 | CCCC[C@H]1C(=O)N(C)[C@@H](CCCC)C(=O)N[C@@H](CCCN)C(=O)N[C@H](C(=O)NCC(N)=O)CSCC(=O)N[C@@H](Cc2ccc(OC)cc2)C(=O)N(C)[C@@H](C)C(=O)N[C@@H](CC(N)=O)C(=O)N2CCC[C@H]2C(=O)N[C@@H](Cc2cnc[nH]2)C(=O)N[C@@H](CCC(=O)O)C(=O)C2C[C@H](O)C[C@H]2C(=O)N[C@@H](Cc2c[nH]c3ccccc23)C(=O)N[C@@H](CCN)C(=O)N[C@@H](Cc2c[nH]c3ccccc23)C(=O)N1C (stereo partly drawn) [Example 7087] ({CH2CO}-Y(Me)[NMeA]NPH[X5]W[Dab]W[NMeNle][NMeNle][Orn]CG-NH2; thioether N-13) | 1 to 9.9 nM
8 | CCCC[C@H]1C(=O)N2C[C@H](O)C[C@@H]2C(=O)N[C@@H](CC(=O)O)C(=O)N[C@@H](C(C)C)C(=O)N(C)[C@@H](Cc2ccccc2)C(=O)N[C@@H](CCCN)C(=O)N2C[C@H](O)C[C@@H]2C(=O)N[C@@H](Cc2c[nH]c3ccccc23)C(=O)N[C@@H](Cc2ccc(O)cc2)C(=O)N[C@@H](CC(C)C)C(=O)N[C@H](C(=O)NCC(N)=O)CSCC(=O)N[C@@H](Cc2ccc(F)c(F)c2)C(=O)N(C)[C@@H](Cc2ccccc2)C(=O)N1C [Example 9296] ({CH2CO}-[Phe(3,4-F2)][NMeF][NMeNle][d(cisHyp)]DV[NMeF][Orn][d(cisHyp)]WYLCG-NH2; thioether N-13) | 1 to 9.9 nM
9 | CCCC[C@H]1C(=O)N2CCOC[C@@H]2C(=O)N[C@@H](CC(=O)O)C(=O)N[C@@H](C(C)C)C(=O)N(C)[C@@H](Cc2ccccc2)C(=O)N[C@@H](CCCN)C(=O)N2C[C@H](O)C[C@@H]2C(=O)N[C@@H](Cc2c[nH]c3ccccc23)C(=O)N[C@@H](Cc2ccc(O)cc2)C(=O)N[C@@H](CCOC)C(=O)N[C@H](C(=O)NCC(N)=O)CSCC(=O)N[C@@H](Cc2cc(F)c(F)c(F)c2)C(=O)N(C)[C@@H](Cc2ccccc2)C(=O)N1C [Example 10184] ({CH2CO}-[Phe(3,4,5-F3)][NMeF][NMeNle][X1]DV[NMeF][Orn][d(cisHyp)]WY[hSer](Me)CG-NH2; thioether N-13) | 10 to 99.9 nM
10 | CCCC[C@H]1C(=O)N[C@@H](CC(N)=O)C(=O)N2CCC[C@H]2C(=O)N[C@@H](CO)C(=O)N[C@@H](CCO)C(=O)N2C[C@H](O)C[C@H]2C(=O)N[C@@H](Cc2c[nH]c3ccccc23)C(=O)N[C@@H](CN)C(=O)N[C@@H](Cc2c[nH]c3ccccc23)C(=O)N(C)[C@@H](C)C(=O)N(C)CC(=O)N[C@@H](CCCNC(=N)N)C(=O)NC(C(=O)NCC(N)=O)CSCC(=O)N[C@@H](Cc2ccc(O)cc2)C(=O)N1C (stereo partly drawn) [Example 10205] ({CH2CO}-Y[NMeNle]NPS[hSer][Hyp]W[Dap]W[NMeA][Sar]R[ξC]G-NH2; thioether N-14) | 1000 to 10000 nM
11 | CCCC[C@H]1C(=O)N2CCC[C@@H]2C(=O)N[C@@H](CC(=O)O)C(=O)N[C@@H](C(C)C)C(=O)N(C)[C@@H](C(C)C)C(=O)N[C@@H](CCC(N)=O)C(=O)N2CCC[C@@H]2C(=O)N[C@@H](Cc2c[nH]c3ccccc23)C(=O)N[C@@H](Cc2ccc(O)cc2)C(=O)N[C@@H](CC(C)C)C(=O)N[C@H](C(=O)NCC(N)=O)CSCC(=O)N[C@@H](Cc2ccc(F)cc2)C(=O)N(C)[C@@H](Cc2ccccc2)C(=O)N1C [Example 9245] ({CH2CO}-[Phe(4-F)][NMeF][NMeNle][dP]DV[NMeV]Q[dP]WYLCG-NH2; thioether N-13) | 1000 to 10000 nM
12 | CCCC[C@H]1C(=O)N[C@@H](CC(N)=O)C(=O)N2CCC[C@H]2C(=O)N[C@@H](CO)C(=O)N[C@@H](CCO)C(=O)N2C[C@H](O)C[C@H]2C(=O)N[C@@H](Cc2c[nH]c3ccccc23)C(=O)N[C@@H](CCO)C(=O)N[C@@H](Cc2c[nH]c3ccccc23)C(=O)N(C)[C@@H](C)C(=O)N(C)[C@@H](C)C(=O)N[C@@H](CCCCN)C(=O)NC(C(=O)NCC(N)=O)CSCC(=O)N[C@@H](Cc2ccc(O)cc2)C(=O)N1C (stereo partly drawn) [Example 10217] ({CH2CO}-Y[NMeNle]NPS[hSer][Hyp]W[hSer]W[NMeA][NMeA]K[ξC]G-NH2; thioether N-14) | 1000 to 10000 nM
13 | CCCC[C@H]1C(=O)N2CSC[C@@H]2C(=O)N[C@@H](CC(=O)O)C(=O)N[C@@H](C(C)C)C(=O)N(C)[C@@H](Cc2ccccc2)C(=O)N[C@@H](Cc2ccc(O)cc2)C(=O)N2CCC[C@@H]2C(=O)N[C@@H](Cc2c[nH]c3ccccc23)C(=O)N[C@@H](Cc2ccc(O)cc2)C(=O)N[C@@H](CC(C)C)C(=O)N[C@H](C(=O)NCC(N)=O)CSCC(=O)N[C@@H](Cc2ccccc2)C(=O)N(C)[C@@H](Cc2ccccc2)C(=O)N1C [Example 10072] ({CH2CO}-F[NMeF][NMeNle][dThz]DV[NMeF]Y[dP]WYLCG-NH2; thioether N-13) | 1 to 9.9 nM
14 | CCCC[C@H]1C(=O)N(C)CC(=O)N[C@@H](CC(=O)O)C(=O)N[C@@H](C(C)C)C(=O)N(C)[C@@H](Cc2ccccc2)C(=O)N[C@@H](Cc2ccc(O)cc2)C(=O)N(C)CC(=O)N[C@@H](Cc2c[nH]c3ccccc23)C(=O)N[C@@H](Cc2ccc(O)cc2)C(=O)N[C@@H](CC(C)C)C(=O)N[C@H](C(=O)NCC(N)=O)CSCC(=O)N[C@@H](Cc2ccc([N+](=O)[O-])cc2)C(=O)N(C)[C@@H](Cc2ccccc2)C(=O)N1C [Example 3244] ({CH2CO}-[Phe(4-NO2)][NMeF][NMeNle][Sar]DV[NMeF]Y[Sar]WYLCG-NH2; thioether N-13) | 10 to 99.9 nM
15 | CCCC[C@H]1C(=O)N2CCC[C@@H]2C(=O)N[C@@H](CC(=O)O)C(=O)N[C@@H](C(C)C)C(=O)N(C)[C@@H](Cc2ccccc2)C(=O)N[C@@H](Cc2ccc(O)cc2)C(=O)N2CCC[C@@H]2C(=O)N[C@@H](Cc2c[nH]c3ccccc23)C(=O)N[C@@H](Cc2ccc(O)cc2)C(=O)N[C@@H](CCO)C(=O)N[C@H](C(=O)NCC(N)=O)CSCC(=O)N[C@@H](Cc2cc(F)c(F)c(F)c2)C(=O)N(C)[C@@H](Cc2ccccc2)C(=O)N1C [Example 10095] ({CH2CO}-[Phe(3,4,5-F3)][NMeF][NMeNle][dP]DV[NMeF]Y[dP]WY[hSer]CG-NH2; thioether N-13) | 1 to 9.9 nM
